Reference: patent US12472193B2, “Methods and compositions for treating and preventing respiratory related diseases and conditions with xylitol-headgroup lipid analogs” (National Jewish Health, priority 2017, dated 2025)
“Also recorded” adds a separate entry of the source.

Molecular target: T1, TLR 9 (Mus musculus, UniProt Q9EQU3)
T1 construct: RAW264.7 cells secrete TNF-α in response to the TLR9 agonist CpG; endogenous in cells; host or cells: RAW264.7 (ATCC)
T1 sequence (Q9EQU3 26-1032): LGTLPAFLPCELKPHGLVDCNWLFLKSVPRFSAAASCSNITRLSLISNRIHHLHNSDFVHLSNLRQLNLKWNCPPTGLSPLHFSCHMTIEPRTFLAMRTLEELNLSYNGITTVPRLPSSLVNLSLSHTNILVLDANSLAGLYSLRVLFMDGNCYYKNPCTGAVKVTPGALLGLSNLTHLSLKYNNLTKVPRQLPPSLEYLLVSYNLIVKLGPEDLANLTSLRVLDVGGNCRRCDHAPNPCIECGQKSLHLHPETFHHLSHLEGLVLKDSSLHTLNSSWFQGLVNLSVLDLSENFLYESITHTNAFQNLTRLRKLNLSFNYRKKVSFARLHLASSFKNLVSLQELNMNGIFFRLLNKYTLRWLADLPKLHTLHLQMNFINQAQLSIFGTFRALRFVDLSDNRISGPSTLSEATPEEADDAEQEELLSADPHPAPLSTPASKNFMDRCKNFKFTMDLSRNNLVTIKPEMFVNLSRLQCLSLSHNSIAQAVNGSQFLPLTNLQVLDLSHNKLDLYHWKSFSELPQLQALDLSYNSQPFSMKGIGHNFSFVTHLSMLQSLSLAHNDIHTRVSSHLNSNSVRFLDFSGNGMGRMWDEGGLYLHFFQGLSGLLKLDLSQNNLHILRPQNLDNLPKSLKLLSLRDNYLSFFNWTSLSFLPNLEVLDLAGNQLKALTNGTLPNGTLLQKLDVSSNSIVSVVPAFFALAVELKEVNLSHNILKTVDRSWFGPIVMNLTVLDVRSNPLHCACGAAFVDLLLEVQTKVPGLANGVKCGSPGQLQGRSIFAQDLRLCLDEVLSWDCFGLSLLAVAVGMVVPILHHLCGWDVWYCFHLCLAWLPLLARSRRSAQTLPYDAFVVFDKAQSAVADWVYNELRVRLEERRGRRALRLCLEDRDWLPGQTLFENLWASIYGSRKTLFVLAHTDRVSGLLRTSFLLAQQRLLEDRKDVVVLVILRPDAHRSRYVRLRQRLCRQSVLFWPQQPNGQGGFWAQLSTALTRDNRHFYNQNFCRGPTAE
Test: CpG-induced TNFα secretion by RAW264.7 cells (TLR 9 antagonism)
Assay type: cell-based
Settings: for antagonism of TLR 9 activation (TNFα secretion): 5 μg/mL CpG, 100 μg/mL phospholipid, 5.5 hours; for TLR9 antagonist activity: reduction in cytokine secretion vs activating TLR ligand alone
Protocol: The mouse macrophage cell line, RAW264.7, was obtained from ATCC and maintained in DMEM, supplemented with 10% bovine growth serum and 1× penicillin streptomycin. Cells were maintained at 37° C. with 5% carbon dioxide: 95% air atmosphere within the incubator. Experiments were completed in a 96-well plate where cells were seated at a density of 1×10^5 cells per well, 24 prior to stimulation with TLR agonists and antagonists. Lipids were dried under a stream of nitrogen, hydrated with phosphate-buffered saline (PBS) at 37° C. for one hour, followed by water bath sonication to create liposomes. Each condition for cell stimulation and antagonism was prepared in DMEM in a separate tube and consisted of: control, TLR agonist, TLR agonist+lipid, and lipid alone. 100 μL aliquots of medium+agonists+antagonists were added to each well and incubated at 37° C. for 4 hours. Subsequently, the media were collected, diluted and an enzyme-linked immunosorbent assay (ELISA) was performed to quantify TNFα release by cells.
TLR 9 is another member of the intracellular TLRs found in the endosomal compartment. It detects unmethylated CpG sequences in DNA molecules commonly found among bacteria and DNA viruses (H. Hemmi, et al., “A Toll-like receptor recognizes bacterial DNA.,” Nature, vol. 408, no. 6813, pp. 740-5, December 2000; J. Lund, et al, “Toll-like receptor 9-mediated recognition of Herpes simplex virus-2 by plasmacytoid dendritic cells.,” J. Exp. Med., vol. 198, no. 3, pp. 513-20, August 2003). To test antagonism activity of PX lipids against TLR 9, RAW264.7 cells were stimulated for 5.5 hours with 5 μg/mL CpG in the absence or presence of 100 μg/mL phospholipid. […] The action of CpG is not affected by POPC, POPG, or many of the xylitol phospholipids, such as 14:0 DEPX, DSPX and 18:1 DEPX.

SMILES	antagonism of TLR 9 activation (TNFα secretion)	TLR9 antagonist activity
CCCCCCCC/C=C\CCCCCCCC(=O)O[C@H](COC(=O)CCCCCCCCCCCCCCC)COP(=O)(O)OCC(O)CO (stereo partly drawn) [POPG, palmitoyl-oleoyl-phosphatidylglycerol, reference compound]	not affected	
CCCCCCCCCCCCCC(=O)OC[C@H](COP(=O)(O)OCC(O)C(O)C(O)CO)OC(=O)CCCCCCCCCCCCC (mixture of isomers) [DMPX, sn-1-myristoyl, sn-2-myristoyl sn-3 glycerol phosphoxylitol]	acts as an agonist for TLR9 activation	
CCCCCCCC/C=C\CCCCCCCC(=O)O[C@H](COC(=O)CCCCCCCCCCCCCCC)COP(=O)([O-])OCC[N+](C)(C)C [POPC, 1-palmitoyl-2-oleoyl-sn-glycero-3-phosphocholine, reference compound]	not affected	
CCCCCCCCC=CCCCCCCCCOCC(COP(=O)(O)OCC(O)C(O)C(O)CO)OCCCCCCCCC=CCCCCCCCC (mixture of isomers) [18:1 DEPX, sn-1-O-octadecenyl, sn-2-O-octadecenyl sn-3 glycerol phosphoxylitol]	not affected	
CCCCCCCCCCCCCCCCCC(=O)OCC(COP(=O)(O)OCC(O)C(O)C(O)CO)OC(=O)CCCCCCCCCCCCCCCCC (stereo not drawn) [DSPX, sn-1-stearoyl, sn-2-stearoyl sn-3 glycerol phosphoxylitol]	not affected	
CCCCCCCCCCCCCCOC[C@H](COP(=O)(O)OCC(O)C(O)C(O)CO)OCCCCCCCCCCCCCC (mixture of isomers) [14:0 DEPX, sn-1-O-myristyl, sn-2-O-myristyl sn-3 glycerol phosphoxylitol]	not affected	
CCCCCC=CCC=CCCCCCCCC(=O)OCC(COP(=O)(O)OCC(O)C(O)C(O)CO)OC(=O)CCCCCCCC=CCC=CCCCCC (mixture of isomers) [18:2 DLPX, sn-1-linoleoyl, sn-2-linoleoyl sn-3 glycerol phosphoxylitol]	effective against TLR 9 activation; also recorded: only effective antagonists of TLR 9 activation	+ (cutoff being greater than a 50% reduction in cytokine secretion compared to activating TLR ligand alone)
CCCCCCCC/C=C\CCCCCCCC(=O)O[C@H](COC(=O)CCCCCCCCCCCCCCC)COP(=O)(O)OCC(O)C(O)C(O)CO (stereo partly drawn) [POPX, sn-1-palmitoyl, sn-2-oleoyly sn-3 glycerol phosphoxylitol]	reduce the TNF-α secretion to control levels; also recorded: inhibits; also recorded: effective against TLR 9 activation; also recorded: only effective antagonists of TLR 9 activation	+ (cutoff being greater than a 50% reduction in cytokine secretion compared to activating TLR ligand alone)
CCCCCCCCC=CCCCCCCCC(=O)OCC(COP(=O)(O)OCC(O)C(O)C(O)CO)OC(=O)CCCCCCCC=CCCCCCCCC (mixture of isomers) [DOPX, sn-1-oleoyl, sn-2-oleoyl sn-3 glycerol phosphoxylitol]	reduce the TNF-α secretion to control levels; also recorded: inhibits; also recorded: effective against TLR 9 activation; also recorded: only effective antagonists of TLR 9 activation	+ (cutoff being greater than a 50% reduction in cytokine secretion compared to activating TLR ligand alone)
